Laboratory results published in patent EP1614683B1, “Indazole compounds and pharmaceutical compositions for inhibiting protein kinases, and methods for their use” (priority 1999, dated 2001).
Like-named read-outs stand apart in the source and are kept apart here.

Columns and labels:
[1] = biological target: T1, phosphorylated Tie-2 (aa 775-1122) (Homo sapiens, UniProt Q02763); assay: TIE-2 spectrophotometric assay; format: biochemical; conditions: for inhibition at 10 µM: read-out: % Inhibition Tie2-P, compound tested at 10 µM; for inhibition at 1 µM: read-out: % Inhibition @ 1 µM Tie2-P
T1 construct: 4 to 12 nM phosphorylated Tie-2 (aa 775-1122); made in house; host or cells: insect cells
Method: This construct also carries a R774M mutation, which serves as the initiating methionine residue in translation.
The kinase-catalyzed production of ADP from ATP that accompanies phosphoryl transfer to the random copolymer poly(Glu4 Tyr) was coupled to the oxidation of NADH through the activities of pyruvate kinase (PK) and lactate dehydrogenase (LDH). NADH conversion to NAD* was monitored by the decrease in absorbance at 340 nm (ε = 6.22 cm^-1mM^-1) using a Beckman DU650 spectrophotometer. Typical reaction solutions contained 1 mM phosphoenolpyruvate, 0.24 mM NADH, 40 mM MgCl2, 5 mM DTT, 2.9 mg/mL poly(Glu4Tyr), 0.5 mM ATP, 15 units/mL PK, 15 units/mL LDH in 100 mM HEPES, pH 7.5. […]

[2] = tested on: human umbilical vein endothelial cells (HUVEC); assay: HUVEC proliferation assay (VEGF-stimulated, MTT); format: cell-based; conditions: Homo sapiens, HUVEC, Table 1
human FGF-R1 = human FGF-R1 (Homo sapiens, UniProt P11362, C488A/C584S/L457V); assay: FGF-R spectrophotometric assay; format: biochemical
Method: The spectrophotometric assay was carried out as described above for VEGF-R2, except for the following changes in concentration: FGF-R = 50 nM, ATP = 2 mM, and poly(E4Y1) =15 mM.

LCK tyrosine kinase = LCK tyrosine kinase (Homo sapiens, UniProt P06239, C224D/P223M); assay: LCK spectrophotometric assay; format: biochemical
Method: The spectrophotometric assay was carried out as described above for VEGF-R2, except for the following changes in concentration: LCK = 60 nM, MgCl2 = 0 mM, poly(E4Y1) = 20 mM.

human CHK1 (FL-CHK1) = biological target: T2, human CHK1 (FL-CHK1) (Homo sapiens, UniProt O14757); assay: CHK1 coupled spectrophotometric assay; format: biochemical; conditions: for inhibition at 1 µM: read-out: CHK1* (% inhibition); for inhibition at 50 µM: read-out: CHK-1* (% inhibition @ 50 µM)
T2 construct: C-terminally His-tagged full-length human CHK1 (FL-CHK1) was expressed using the baculovirus/insect cell system; made in house; host or cells: baculovirus/insect cell system
T2 sequence (O14757 1-476): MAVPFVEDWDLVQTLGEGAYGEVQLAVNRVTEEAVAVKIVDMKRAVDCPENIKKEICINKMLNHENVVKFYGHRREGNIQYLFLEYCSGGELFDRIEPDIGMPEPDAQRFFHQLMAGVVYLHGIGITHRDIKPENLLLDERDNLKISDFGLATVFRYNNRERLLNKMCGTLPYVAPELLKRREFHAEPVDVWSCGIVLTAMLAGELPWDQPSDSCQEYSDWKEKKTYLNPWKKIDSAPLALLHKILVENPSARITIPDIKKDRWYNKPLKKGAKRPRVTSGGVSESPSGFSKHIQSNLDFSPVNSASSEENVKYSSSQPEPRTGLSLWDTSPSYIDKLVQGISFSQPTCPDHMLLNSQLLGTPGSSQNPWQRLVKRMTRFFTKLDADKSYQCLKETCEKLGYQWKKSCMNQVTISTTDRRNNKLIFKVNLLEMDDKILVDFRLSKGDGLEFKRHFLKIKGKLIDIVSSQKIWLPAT
Description: CHK1 Construct for Assay: C-terminally His-tagged full-length human CHK1 (FL-CHK1) was expressed using the baculovirus/insect cell system. […] The protein was purified by conventional chromatographic techniques.
The production of ADP from ATP that accompanies phosphoryl transfer to the synthetic substrate peptide Syntide-2 ([…]) was coupled to oxidation of NADH using phosphoenolpyruvate (PEP) through the actions of pyruvate kinase (PK) and lactic dehydrogenase (LDH). The oxidation of NADH was monitored by following the decrease of absorbance at 340 nm (∈340 = 6.22 cm^-1 mM^-1) using a HP8452 spectrophotometer. […] Assays were initiated with 10 nM of FL-CHK1. Ki values were determined by measuring initial enzyme activity in the presence of varying concentrations of test compounds. The data were analyzed using Enzyme Kinetic and Kaleidagraph software.

[3] = Table 5, 1 µM, bold values spectrophotometric assay, non-bolded DELFIA assay (bold not visible here)

T1 sequence (Q02763 775-1122): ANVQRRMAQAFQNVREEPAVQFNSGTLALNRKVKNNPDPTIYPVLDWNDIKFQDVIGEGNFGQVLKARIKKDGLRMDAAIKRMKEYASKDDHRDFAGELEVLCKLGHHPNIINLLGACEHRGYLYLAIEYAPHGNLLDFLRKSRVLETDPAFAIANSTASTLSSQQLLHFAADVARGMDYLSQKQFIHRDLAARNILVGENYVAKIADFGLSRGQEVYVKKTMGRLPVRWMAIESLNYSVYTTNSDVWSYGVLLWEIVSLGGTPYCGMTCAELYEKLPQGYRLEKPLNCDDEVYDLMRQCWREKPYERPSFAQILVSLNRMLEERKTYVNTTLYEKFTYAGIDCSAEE
human FGF-R1, sequence (P11362 456-766 L457V/C488A/C584S): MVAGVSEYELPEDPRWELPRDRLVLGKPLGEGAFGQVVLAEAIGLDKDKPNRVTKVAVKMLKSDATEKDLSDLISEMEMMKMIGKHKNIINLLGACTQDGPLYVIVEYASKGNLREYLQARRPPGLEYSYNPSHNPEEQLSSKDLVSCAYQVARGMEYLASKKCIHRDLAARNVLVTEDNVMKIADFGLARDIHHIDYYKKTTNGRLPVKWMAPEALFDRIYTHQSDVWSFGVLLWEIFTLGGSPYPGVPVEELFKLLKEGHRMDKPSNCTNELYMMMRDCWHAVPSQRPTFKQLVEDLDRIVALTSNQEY
LCK tyrosine kinase, sequence (P06239 223-509 P223M/C224D): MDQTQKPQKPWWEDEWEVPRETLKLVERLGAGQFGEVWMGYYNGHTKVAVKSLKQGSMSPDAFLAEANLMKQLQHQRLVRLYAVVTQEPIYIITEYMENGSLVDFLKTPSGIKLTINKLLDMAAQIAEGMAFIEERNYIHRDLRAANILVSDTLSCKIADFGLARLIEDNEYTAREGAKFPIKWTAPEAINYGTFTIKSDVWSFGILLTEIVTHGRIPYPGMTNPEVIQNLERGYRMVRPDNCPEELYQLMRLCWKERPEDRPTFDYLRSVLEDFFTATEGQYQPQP

## C=C(c1ccccc1)c1ccc2c(/C=C/c3ccccc3)n[nH]c2c1 [Example 10, 6-(1-Phenyl-vinyl)-3-styryl-1H-indazole]
[1]
  inhibition at 10 µM: 20%
[2]; read-out: HUVEC IC50
  IC50: > 700 nM

## Cc1cnc(C(=O)Nc2cccc(C(=O)c3ccc4c(/C=C/c5ccccc5)n[nH]c4c3)c2)s1 [19(d), 5-Methyl-thiazole-2-carboxylic acid [3-(3-styryl-1H-indazole-6-carbonyl)-phenyl]-amide]
[1]; [3]
  inhibition at 1 µM: 15%
[2]; + albumin, read-out: HUVEC + albumin IC50
  IC50: 34 nM
[2]; read-out: HUVEC IC50
  IC50: 6.8 nM
Human FGF-R1; Table 1, compound concentration 1 µM, read-out: FGF-P* (% inhibition)
  inhibition at 1 µM: 39%
LCK tyrosine kinase; Table 1, compound concentration 1 µM, read-out: Lck-P* (% inhibition)
  inhibition at 1 µM: 33%

## COc1cc(O)ccc1-c1ccc2c(-c3nc4ccc(C(=O)NCCN5CCOCC5)cc4[nH]3)n[nH]c2c1 [Reference Example 25(b), 3-[6-(2-morpholin-4-yl-ethylcarbamoyl)-1H-benzoimidazol-2-yl]-6-(2-methoxy-4-hydroxyphenyl)-1H-indazole]
Human FGF-R1; read-out: FGF* (% inhibition)
  inhibition at 1 µM: 87%
LCK tyrosine kinase; read-out: Lck* (% inhibition)
  inhibition at 1 µM: 87%
Human CHK1 (FL-CHK1)
  inhibition at 1 µM: 83%

## Oc1ccc(-c2ccc3c(-c4cc5ccccc5o4)n[nH]c3c2)cc1OCc1ccccc1 [2(e), 3-(Benzofuran-2-yl)-6-(3-benzyloxy-4-hydroxy-phenyl)-1H-indazole]
Human CHK1 (FL-CHK1); read-out: CHK -1* (% inhibition @ 20 µM)
  inhibition at 20 µM: 5%

## COc1cc(-c2ccc3c(-c4nc5ccccc5[nH]4)n[nH]c3c2)c(C)cc1O [24(a), 4-[3-(1-H-Benzoimidazol-2-yl)-1-H-indazol-6-yl]-2-methoxy-5-methyl-phenol]
[1]
  inhibition at 10 µM: 91%
Human FGF-R1; read-out: FGF* (% inhibition)
  inhibition at 1 µM: 72%
LCK tyrosine kinase; read-out: Lck* (% inhibition)
  inhibition at 1 µM: 67%

## C=C(c1cccc(NC(=O)c2ncc(C)s2)c1)c1ccc2c(/C=C/c3ccccc3)n[nH]c2c1 [22(a), 6-(1-(3-(5-Methyl-thiaxole-2-carboxoylamido)phenyl)-vinyl)-3-styryl-1H-indazole]
[1]; [3]
  inhibition at 1 µM: 8%
[2]; read-out: HUVEC IC50
  IC50: 12 nM

## CN(c1ccccc1)c1ccc2c(/C=C/c3ccccc3)n[nH]c2c1 [Example 14, Methyl-phenyl-(3-styryl-1H-indazol-6-yl)-amine]
Human CHK1 (FL-CHK1); read-out: CHK -1* (% inhibition @ 25 µM)
  inhibition at 25 µM: 12%

## COCOc1ccc(Oc2ccc3c(/C=C/c4ccccc4)n[nH]c3c2)cc1 [8(b), 3-(E-styryl)-6-[4-(methoxymethoxy)phenoxy]-1H-indazole]
Human CHK1 (FL-CHK1)
  inhibition at 50 µM: 12%

## Fc1ccc(F)c(/C=C/c2n[nH]c3cc(-c4ccncc4)ccc23)c1 [Reference Example 29(s), 6-pyrid-4-yl-3-E-[2-(2,5-difluorophenyl)ethenyl]-1H-indazole]
Human CHK1 (FL-CHK1); read-out: CHK-1* (Ki), Table 3
  Ki: 11000 nM

## O=C(c1ccccc1)c1ccc2c(/C=C/c3ccccc3)n[nH]c2c1 [Example 17, Phenyl-(3-styryl-1H-indazol-6-yl)-methanone]
[1]
  inhibition at 1 µM: 50%

## COc1cc(O)ccc1-c1ccc2c(-c3nc4c(N5CCN(C)CC5)cccc4[nH]3)n[nH]c2c1 [Reference Example 25(d)]
Human FGF-R1; read-out: FGF* (% inhibition)
  inhibition at 1 µM: 80%
LCK tyrosine kinase; read-out: Lck* (% inhibition)
  inhibition at 1 µM: 60%
Human CHK1 (FL-CHK1)
  inhibition at 1 µM: 87%

## Clc1cccc(Cl)c1/C=C/c1n[nH]c2cc(-c3ccncc3)ccc12 [Reference Example 29(a), 6-pyrid-4-yl-3-E-[2-(2,6-dichlorophenyl)ethenyl]-1H-indazole]
Human CHK1 (FL-CHK1); Table 3, @ 25µM, NI = no significant inhibition
  CHK-1* (inhibition @ 25 µM): Nl @ 25µM

## CN(c1cccc(NC(=O)OCc2ccccc2)c1)c1ccc2c(/C=C/c3ccccc3)n[nH]c2c1 [12(c), {3-[Methyl-(3-styryl-1H-indazol-6-yl)-amino]-phenyl}-carbamic acid benzyl ester]
[1]; [3]
  inhibition at 1 µM: 17%

## CN(c1cccc(N)c1)c1ccc2c(/C=C/c3ccccc3)n[nH]c2c1 [Example 11, N-Methyl-N-(3-styryl-1H-indazol-6-yl)-benzene-1,3-diamine]
[1]; [3]
  inhibition at 1 µM: 40%

## COc1cc(O)ccc1-c1ccc2c(-c3nc4ccc(N5CCN(C)CC5)cc4[nH]3)n[nH]c2c1 [Reference Example 25(c), 3-[6-(4-methylpiperazin-1-yl)-1H-benzoimidazol-2-yl]-6-(2-methoxy-4-hydroxyphenyl)-1H-indazole]
Human FGF-R1; read-out: FGF* (% inhibition)
  inhibition at 1 µM: 96%
Human CHK1 (FL-CHK1)
  inhibition at 1 µM: 90%

## COc1cc(O)ccc1-c1ccc2c(-c3nc4ccncc4[nH]3)n[nH]c2c1 [Reference Example 25(a), 3-(3H-Imidazo[4,5-c]pyridin-2-yl)-6-(4-hydroxy-2-methoxyphenyl)-1H-indazole]
Human FGF-R1; read-out: FGF* (% inhibition)
  inhibition at 1 µM: 62%
LCK tyrosine kinase; read-out: Lck* (% inhibition)
  inhibition at 1 µM: 44%
Human CHK1 (FL-CHK1)
  inhibition at 1 µM: 49%

## C=C(c1cccc(N)c1)c1ccc2c(/C=C/c3ccccc3)n[nH]c2c1 [Example 21, 6-(1-(3-Aminophenyl)-vinyl)-3-styryl-1H-indazole]
[1]; [3]
  inhibition at 1 µM: 27%
[2]; read-out: HUVEC IC50
  IC50: > 700 nM

## COc1ccc(-c2ccc3c(/C=C/c4ccccc4)n[nH]c3c2)cc1 [Reference Example 27(c)]
Human CHK1 (FL-CHK1); read-out: CHK-1* (% inhibition @ 5 µM)
  inhibition at 5 µM: 11%

## Cc1cc(O)ccc1-c1ccc2c(-c3nc4ccccc4[nH]3)n[nH]c2c1 [24(b), 4-[3-(1-H-Benzoimidazol-2-yl)-1-H-indazol-6-yl]-3-methylphenol]
[1]
  inhibition at 10 µM: 92%
Human FGF-R1; read-out: FGF* (% inhibition)
  inhibition at 1 µM: 88%
LCK tyrosine kinase; read-out: Lck* (% inhibition)
  inhibition at 1 µM: 96%

## Cc1cc(O)c(Cl)cc1-c1ccc2c(-c3nc4ccccc4[nH]3)n[nH]c2c1 [24(c), 4-[3-(1-H-Benzoimidazol-2-yl)-1-B-indazol-6-yl]-2-chloro-5-methyl-phenol]
[1]
  inhibition at 1 µM: 94%
Human FGF-R1; read-out: FGF* (% inhibition)
  inhibition at 1 µM: 89%
LCK tyrosine kinase; read-out: Lck* (% inhibition)
  inhibition at 1 µM: 93%

## COc1cccc(-c2ccc3c(/C=C/c4ccccc4)n[nH]c3c2)c1 [Reference Example 27(b)]
Human CHK1 (FL-CHK1)
  inhibition at 50 µM: 28%

## C(=C\c1n[nH]c2cc(-c3cccc4ccccc34)ccc12)/c1ccccc1 [Reference Example 27(d)]
Human CHK1 (FL-CHK1); read-out: CHK-1* (% inhibition @ 10 µM)
  inhibition at 10 µM: 14%

## COc1cc(O)ccc1-c1ccc2c(-c3ncc[nH]3)n[nH]c2c1 [Reference Example 25(e), 3-imidazol-2-yl-6-(2-methoxy-4-hydroxyphenyl)-1H-indazole]
Human FGF-R1; read-out: FGF* (% inhibition)
  inhibition at 1 µM: 26%
LCK tyrosine kinase; read-out: Lck* (% inhibition)
  inhibition at 1 µM: 13%
Human CHK1 (FL-CHK1)
  inhibition at 1 µM: 16%

## Oc1ccc(Oc2ccc3c(/C=C/c4ccccc4)n[nH]c3c2)cc1 [9(b), 3-(E-styryl)-6-[4-hydroxyphenoxy]-1H-indazole]
[1]
  inhibition at 10 µM: 88%

## Cc1c(O)ccc(NC(=O)c2ccc3c(-c4nc5ccccc5[nH]4)n[nH]c3c2)c1C [Example 53(d), 3-(1H-benzoimidazol-2-yl)-N-(4-hydroxy-2,3-dimethylphenyl)-1H-indazole-6-carboxamide]
Human CHK1 (FL-CHK1); Table 3, @ 100 µM, NI = no significant inhibition
  CHK-1* (inhibition @ 100 µM): Nl @ 100 µM

## CSc1cc(O)ccc1-c1ccc2c(-c3nc4ccccc4[nH]3)n[nH]c2c1 [Reference Example 24(k), 3-1H-Benzoimidazol-2-yl-6.(2-methylsulfanyl-4-hydroxyphenyl}-1H-indazole]
LCK tyrosine kinase; read-out: Lck* (% inhibition)
  inhibition at 1 µM: 89%
Human CHK1 (FL-CHK1)
  inhibition at 1 µM: 81%

## COc1cc(O)ccc1-c1ccc2c(-c3nc4cc(N(C)C)ccc4[nH]3)n[nH]c2c1 [Reference Example 25(h), 3-(5-Dimethylamino-1H-benzoimidazol-2-yl)-6-(2-methoxy-4-hydroxy-phenyl)-1H-indazole]
Human FGF-R1; read-out: FGF* (% inhibition)
  inhibition at 1 µM: 91%
LCK tyrosine kinase; read-out: Lck* (% inhibition)
  inhibition at 1 µM: 87%
Human CHK1 (FL-CHK1)
  inhibition at 1 µM: 86%
